Assay results from PubChem BioAssay (NCI).
“And” between values parts separate entries of the source, which are not always exact repeats. Equal values may be shown once.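 48-hour exposure; five concentrations; linearly interpolated endpoints. At the TGI there is no net growth.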

How the values were obtained:
Experiment in all cases: growth of human tumour cells (NCI), 48 h
COLO 205 colon = tested on: COLO 205 colon
HOP-92 NSCLC = tested on: HOP-92 NSCLC
M14 melanoma = tested on: M14 melanoma
MALME-3M melanoma = tested on: MALME-3M melanoma
MCF7 breast = tested on: MCF7 breast
MOLT-4 leukemia = tested on: MOLT-4 leukemia
NCI/ADR-RES ovarian = tested on: NCI/ADR-RES ovarian
SW-620 colon = tested on: SW-620 colon
UACC-62 melanoma = tested on: UACC-62 melanoma
SF-539 CNS = tested on: SF-539 CNS

O=C(NCCN1CCCCC1)c1ccc(Br)cc1
TGI (COLO 205 colon): > 100 µM
TGI (HOP-92 NSCLC): > 100 µM
TGI (M14 melanoma): > 100 µM
TGI (MALME-3M melanoma): > 100 µM
TGI (MCF7 breast): > 100 µM
TGI (MOLT-4 leukemia): > 100 µM
TGI (NCI/ADR-RES ovarian): > 100 µM
TGI (SW-620 colon): > 100 µM

O=[N+]([O-])c1ccc(SN=S=NSc2cccc(SN=S=NSc3ccc([N+](=O)[O-])cc3)c2)cc1
TGI (COLO 205 colon): > 100 µM
TGI (HOP-92 NSCLC): > 100 µM
TGI (M14 melanoma): > 100 µM
TGI (MALME-3M melanoma): > 100 µM
TGI (MCF7 breast): 75 µM
TGI (MOLT-4 leukemia): > 100 µM
TGI (NCI/ADR-RES ovarian): > 100 µM
TGI (SW-620 colon): 60.3 µM
TGI (UACC-62 melanoma): > 100 µM

O=C(Cc1ccccc1)NN1C(=O)C(Cl)C1c1ccccc1Cl (stereo not drawn)
TGI (COLO 205 colon): > 100 µM
TGI (HOP-92 NSCLC): > 100 µM
TGI (M14 melanoma): > 100 µM
TGI (MALME-3M melanoma): > 100 µM
TGI (MOLT-4 leukemia): 62.8 µM
TGI (SF-539 CNS): > 100 µM
TGI (SW-620 colon): > 100 µM
TGI (UACC-62 melanoma): > 100 µM

CCS(=O)C(=O)N(O)c1ccc(Cl)cc1 (stereo not drawn)
TGI (COLO 205 colon): > 100 µM
TGI (HOP-92 NSCLC): > 100 µM
TGI (M14 melanoma): 35.1 µM
TGI (MCF7 breast): 50.9 µM
TGI (MOLT-4 leukemia): 25 µM
TGI (NCI/ADR-RES ovarian): 81.4 µM
TGI (SF-539 CNS): 52.8 µM
TGI (SW-620 colon): 46 µM
TGI (UACC-62 melanoma): 22.9 µM

CCOC(=O)N/N=C(/N)c1cccc(Br)c1
TGI (COLO 205 colon): > 100 µM
TGI (M14 melanoma): > 100 µM
TGI (MALME-3M melanoma): > 100 µM
TGI (MCF7 breast): > 100 µM
TGI (MOLT-4 leukemia): > 100 µM
TGI (NCI/ADR-RES ovarian): > 100 µM
TGI (SF-539 CNS): > 100 µM
TGI (UACC-62 melanoma): > 100 µM

Clc1ccc(Nc2nnc(CNc3ccc(-c4nnc(Nc5ccc(Cl)cc5)s4)cc3)s2)cc1
TGI (COLO 205 colon): 45.3 µM
TGI (HOP-92 NSCLC): > 100 µM
TGI (M14 melanoma): 58.4 µM
TGI (MALME-3M melanoma): > 100 µM
TGI (MCF7 breast): > 100 µM
TGI (MOLT-4 leukemia): > 100 µM
TGI (NCI/ADR-RES ovarian): > 100 µM
TGI (SW-620 colon): > 100 µM
TGI (UACC-62 melanoma): 64.9 µM

CC(C)N(C(=O)C12C3C4C1C1C2C3C41C#N)C(C)C (stereo not drawn)
TGI (COLO 205 colon): > 100 µM
TGI (HOP-92 NSCLC): > 100 µM
TGI (M14 melanoma): > 100 µM
TGI (MALME-3M melanoma): > 100 µM
TGI (MOLT-4 leukemia): > 100 µM
TGI (SF-539 CNS): > 100 µM
TGI (SW-620 colon): > 100 µM
TGI (UACC-62 melanoma): > 100 µM

CCOc1ccccc1N=Nc1ccc2oc(=O)c(C(C)=O)cc2c1
TGI (COLO 205 colon): > 100 µM
TGI (M14 melanoma): > 100 µM
TGI (MALME-3M melanoma): > 100 µM
TGI (MOLT-4 leukemia): > 100 µM
TGI (SF-539 CNS): > 100 µM
TGI (SW-620 colon): > 100 µM
TGI (UACC-62 melanoma): > 100 µM

COc1cc2c(c(OC)c1OC)-c1ccc(SC)c(=O)cc1[C@@H](NCc1ccc(F)cc1)CC2
TGI (COLO 205 colon): < 0.0075 µM
TGI (HOP-92 NSCLC): 75 µM and 7.99 µM
TGI (MALME-3M melanoma): 34.2 µM and 28.4 µM
TGI (MOLT-4 leukemia): 75 µM and > 100 µM
TGI (SW-620 colon): 18.8 µM and > 100 µM

COCC(C)(C)N=CN1Cc2cc3ccccc3nc2C1
TGI (COLO 205 colon): > 100 µM
TGI (HOP-92 NSCLC): > 100 µM
TGI (M14 melanoma): > 100 µM
TGI (MALME-3M melanoma): > 100 µM
TGI (MOLT-4 leukemia): > 100 µM
TGI (SF-539 CNS): > 100 µM
TGI (SW-620 colon): > 100 µM
TGI (UACC-62 melanoma): > 100 µM

CCCCCCCC/C=C1\CCC(CN(C)C)C1=O (stereo not drawn)
TGI (COLO 205 colon): 14.8 µM
TGI (HOP-92 NSCLC): 8.02 µM
TGI (M14 melanoma): 12 µM
TGI (MALME-3M melanoma): 14.3 µM
TGI (MOLT-4 leukemia): 10.1 µM
TGI (SF-539 CNS): 9.32 µM
TGI (SW-620 colon): 8.69 µM
TGI (UACC-62 melanoma): 19.6 µM

COc1ccc(-n2c(CCC(=O)O)nc3c2C(=O)c2ccccc2C3=O)cc1
TGI (COLO 205 colon): > 100 µM
TGI (M14 melanoma): > 100 µM
TGI (MCF7 breast): > 100 µM
TGI (MOLT-4 leukemia): > 100 µM
TGI (NCI/ADR-RES ovarian): > 100 µM
TGI (SF-539 CNS): > 100 µM
TGI (SW-620 colon): > 100 µM
TGI (UACC-62 melanoma): > 100 µM

COC(=O)C(=O)C(C(=O)OC)C(=O)C(=O)Nc1c(C)cccc1C (stereo not drawn)
TGI (COLO 205 colon): > 100 µM
TGI (HOP-92 NSCLC): > 100 µM
TGI (M14 melanoma): > 100 µM
TGI (MALME-3M melanoma): > 100 µM
TGI (MOLT-4 leukemia): > 100 µM
TGI (SF-539 CNS): > 100 µM
TGI (SW-620 colon): > 100 µM
TGI (UACC-62 melanoma): > 100 µM
